Data on eleven compounds can be found in ChEMBL document CHEMBL1201862, “PubChem BioAssay data set” (2004).

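Following 48 hours of exposure in 96-well plates, responses at five concentrations were used to interpolate endpoints linearly. GI50 = concentration required for 50% inhibition of growth.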 Activity calls are given as the source filed them. No stated cut-off is given here; in the data, active = GI50 up to about 1.1 µM and inactive = higher.

Test systems include OVCAR-5; SF-295; OVCAR-3; ACHN; SNB-19; UACC-257; UACC-62; HOP-62; Hs-578T; A549; RXF 393; NCI-H460; Malme-3M; SN12C; MDA-MB-231; HCT-15; CCRF-CEM; K562; HL-60; SR.
Test in all cases: NCI tumour cell line growth inhibition, 48 h

`N/C(=N\O)N/N=C/c1cc(Br)cc(Br)c1O`: the GI50 is 9.86 µM (inactive) with OVCAR-5; 4.98 µM (inactive) with SF-295; 2.37 µM (inactive) with OVCAR-3; 1.95 µM (inactive) in the experiment on ACHN; 7.11 µM (inactive) in the experiment on SNB-19; 14 µM (inactive) in the experiment on UACC-257. For the same compound, the GI50 is 1.46 µM (inactive) in the experiment on UACC-62; 4.21 µM (inactive) in the experiment with HOP-62; 26.9 µM (inactive) with Hs-578T; 5.27 µM (inactive) in the experiment on A549; 4.32 µM (inactive) with RXF 393; 3.32 µM (inactive) with NCI-H460. Also, the GI50 was 2.96 µM (inactive) in the experiment on Malme-3M; 1.86 µM (inactive) with SN12C; 4.6 µM (inactive) with MDA-MB-231; 0.67 µM in the experiment on HCT-15; 0.491 µM (active) with CCRF-CEM; 2.65 µM (inactive) with K562.
As for `C/C1=C/C2=CC(C)C[C@@H]2C(=O)[C@]2(C)C(=O)CC(C)(C)[C@H]2CC1=O` (stereo partly drawn), the GI50 in the experiment with OVCAR-5, in the experiment on SF-295, in the experiment on OVCAR-3, in the experiment with ACHN, with SNB-19 and in the experiment with UACC-257 was > 50 µM (inactive) each time. For the same compound, the GI50 in the experiment on UACC-62 is > 50 µM (inactive); in the experiment on Hs-578T, > 50 µM (inactive); in the experiment on HL-60 it was 9.73 µM (inactive); in the experiment on A549 it was > 50 µM (inactive); in the experiment on NCI-H460, > 50 µM (inactive); in the experiment with Malme-3M, > 50 µM (inactive). In addition, the GI50 in the experiment with SN12C was > 50 µM (inactive); with MDA-MB-231, > 50 µM (inactive); in the experiment with HCT-15, more than 50 µM; in the experiment with CCRF-CEM it was 15 µM (inactive); in the experiment with K562 it was 32.3 µM (inactive).
`COc1ccc(C2C3=C(CCCC3=O)N(c3ccccc3)C3=C2C(=O)CCC3)cc1`: the GI50 is > 100 µM (inactive) with OVCAR-5; 89.7 µM (inactive) with OVCAR-3; > 100 µM (inactive) with ACHN; 58.9 µM (inactive) with SNB-19; 87.1 µM (inactive) in the experiment on UACC-62; 43.2 µM (inactive) with Hs-578T. Further, the GI50 in the experiment with HL-60 was > 100 µM (inactive); in the experiment on A549 it was > 100 µM (inactive); in the experiment on RXF 393 it was 19.5 µM (inactive); in the experiment on NCI-H460 it was > 100 µM (inactive); with SR, > 100 µM (inactive); in the experiment on SN12C, > 100 µM (inactive). Further, the GI50 was more than 100 µM in the experiment on HCT-15, > 100 µM (inactive) in the experiment with CCRF-CEM and > 100 µM (inactive) with K562.
On to `COC(=O)c1nc(-c2nc(CCNC(=O)OC(C)(C)C)sc2Cl)sc1Cl`, for which the GI50 in the experiment with OVCAR-5 is > 100 µM (inactive); with SF-295, > 100 µM (inactive); in the experiment on OVCAR-3, 68.9 µM (inactive); in the experiment with ACHN it was 83.2 µM (inactive); in the experiment with SNB-19, > 100 µM (inactive); with UACC-257 it was > 100 µM (inactive). For the same compound, the GI50 is 35.3 µM (inactive) in the experiment with UACC-62; 32.6 µM (inactive) in the experiment with HOP-62; > 100 µM (inactive) in the experiment on Hs-578T; 71.9 µM (inactive) in the experiment with HL-60; > 100 µM (inactive) in the experiment with A549; > 100 µM (inactive) with RXF 393. Besides, the GI50 was > 100 µM (inactive) in the experiment on NCI-H460; 66.8 µM (inactive) with Malme-3M; 35.2 µM (inactive) with SR; > 10 µM (inactive) in the experiment with SN12C; 36.3 µM with HCT-15; 32.2 µM (inactive) with CCRF-CEM. Moreover, in the experiment with K562, the GI50 was 36.7 µM (inactive).
`O=C1CC(O)c2c1csc2Br` (stereo not drawn): the GI50 in the experiment with OVCAR-5 is > 100 µM (inactive); with SF-295, 60.7 µM (inactive); with OVCAR-3 it was 19.3 µM (inactive); in the experiment with ACHN, 21.9 µM (inactive); with SNB-19, 34.2 µM (inactive); in the experiment on UACC-257, 10.7 µM (inactive). Moreover, the GI50 was 22.7 µM (inactive) in the experiment on UACC-62; 73.6 µM (inactive) in the experiment on HOP-62; 26.6 µM (inactive) with Hs-578T; 28.4 µM (inactive) in the experiment on A549; 17.3 µM (inactive) in the experiment on RXF 393; 25.7 µM (inactive) in the experiment with NCI-H460. Also, the GI50 in the experiment with Malme-3M is 30.8 µM (inactive); in the experiment on SN12C, 20.7 µM (inactive); with MDA-MB-231, 23.8 µM (inactive); with HCT-15, 18.5 µM; with CCRF-CEM, 25.2 µM (inactive); in the experiment on K562, 25.6 µM (inactive).
For the compound `CC1=C(C(=S)Nc2ccc(Cl)c(C(=O)OC(C)C)c2)SCCO1`, the GI50 in the experiment on OVCAR-5 is 34.6 µM (inactive); in the experiment on SF-295, 15.7 µM (inactive); in the experiment on OVCAR-3, 22.8 µM (inactive); in the experiment on ACHN, 25.8 µM (inactive); in the experiment with SNB-19, 16.7 µM (inactive); with UACC-257, 18.5 µM (inactive). In addition, the GI50 with UACC-62 was 15.5 µM (inactive); in the experiment with Hs-578T, 29.3 µM (inactive); in the experiment with HL-60, 17.5 µM (inactive); in the experiment on A549, 31 µM (inactive); in the experiment on NCI-H460, 21.8 µM (inactive); with Malme-3M, 20.3 µM (inactive). In addition, the GI50 with SN12C is 16.7 µM (inactive); in the experiment on MDA-MB-231 it was 18.2 µM (inactive); with HCT-15, 17.1 µM; in the experiment on CCRF-CEM it was 18.2 µM (inactive); with K562, 17.1 µM (inactive).
In the case of `CCCCCCc1cc2cc(C(=O)Nc3ccccc3F)c(=N)oc2cc1O`, the GI50 was 21.2 µM (inactive) with OVCAR-5; 12.1 µM (inactive) with SF-295; 6.38 µM (inactive) with OVCAR-3; 6.08 µM (inactive) in the experiment on ACHN; 8.83 µM (inactive) with SNB-19; 6.64 µM (inactive) with UACC-257. Also, the GI50 in the experiment with UACC-62 is 6.55 µM (inactive); with HOP-62, 14.3 µM (inactive); with Hs-578T it was 11.4 µM (inactive); in the experiment on HL-60, 6.24 µM (inactive); with A549, 6.97 µM (inactive); in the experiment with NCI-H460, 7.62 µM (inactive). Moreover, the GI50 in the experiment on Malme-3M is 6.12 µM (inactive); in the experiment on SR, 2.83 µM (inactive); with HCT-15 it was 3.93 µM; with CCRF-CEM, 4.76 µM (inactive); in the experiment with K562, 3.7 µM (inactive).
For the compound `Cc1ccc(/N=N/C(=N/NC(=O)c2cc(Cl)ccc2C(=O)c2ccccc2)c2ccc(N(CCC#N)CCC#N)cc2C)cc1`, the GI50 in the experiment with OVCAR-5 was 21.3 µM (inactive); in the experiment on SF-295 it was 14.9 µM (inactive); with OVCAR-3, 3.01 µM (inactive); in the experiment with ACHN it was 22 µM (inactive); in the experiment on SNB-19 it was 33.2 µM (inactive); in the experiment on UACC-257, 15.9 µM (inactive). The GI50 with UACC-62 was 12.9 µM (inactive); in the experiment with HOP-62, 15.6 µM (inactive); with Hs-578T, 27.2 µM (inactive); in the experiment with A549 it was 11.5 µM (inactive); in the experiment on RXF 393, 0.0957 µM (active); with NCI-H460, 2.41 µM (inactive). Besides, the GI50 in the experiment with Malme-3M is 15.7 µM (inactive); in the experiment on SN12C, 9.75 µM (inactive); in the experiment with MDA-MB-231 it was 4.06 µM (inactive); with HCT-15, 7.55 µM; in the experiment with CCRF-CEM, 3.17 µM (inactive); in the experiment with K562, 17.4 µM (inactive).
Consider `CCOc1ccc(N/C(=C(/C(Cl)=C(/Cl)N(CC)CC)[N+](=O)[O-])n2nnc3ccccc32)cc1`, for which the GI50 is 33.3 µM (inactive) in the experiment with OVCAR-5; 30.6 µM (inactive) in the experiment with SF-295; 5.24 µM (inactive) in the experiment on OVCAR-3; 20 µM (inactive) in the experiment with ACHN; 31.7 µM (inactive) with SNB-19; 38.7 µM (inactive) with UACC-257. Further, the GI50 is 13.1 µM (inactive) in the experiment with UACC-62; 30.7 µM (inactive) in the experiment on HOP-62; 47.6 µM (inactive) in the experiment with Hs-578T; 34.4 µM (inactive) with A549; 14.4 µM (inactive) with RXF 393; 56.5 µM (inactive) with NCI-H460. Further, the GI50 in the experiment with Malme-3M was 17.9 µM (inactive); in the experiment on SN12C, 21.6 µM (inactive); with MDA-MB-231, 10.7 µM (inactive); in the experiment with HCT-15 it was 19.1 µM; in the experiment with CCRF-CEM it was 19.8 µM (inactive); with K562 it was > 100 µM (inactive).
Regarding `COc1cc2c(cc1OC)C13CCN4CC5=CCOC6CC(=O)N2C1C6C5CC43O` (stereo not drawn), the GI50 in the experiment with OVCAR-5, in the experiment on SF-295, in the experiment on OVCAR-3, with ACHN, in the experiment on SNB-19 and in the experiment on UACC-257 was > 100 µM (inactive) each time. Moreover, the GI50 with UACC-62, with Hs-578T, in the experiment on HL-60, with A549, with NCI-H460 and in the experiment on Malme-3M was > 100 µM (inactive) each time. The GI50 with SN12C is > 100 µM (inactive); in the experiment on MDA-MB-231 it was > 100 µM (inactive); in the experiment with HCT-15, more than 100 µM; in the experiment with CCRF-CEM it was > 100 µM (inactive); in the experiment with K562, > 100 µM (inactive).
Turning to `CC1=C(/C=C/C(C)=C/C=C/C(C)=C/CO)C(C)(C)CCC1` [RETINOL], the GI50 in the experiment on OVCAR-5 was 24.9 µM (inactive); in the experiment with SF-295, 24.2 µM (inactive); in the experiment with OVCAR-3, 14.3 µM (inactive); in the experiment with ACHN it was 29.4 µM (inactive); in the experiment on SNB-19, 22.1 µM (inactive); with UACC-257 it was 27.6 µM (inactive). For the same compound, the GI50 with UACC-62 was 19.5 µM (inactive); with HOP-62, 22.1 µM (inactive); with HL-60, 23.4 µM (inactive); in the experiment with A549, 19.1 µM (inactive); in the experiment with RXF 393, 12.4 µM (inactive); in the experiment on NCI-H460, 30.5 µM (inactive). The GI50 is 11.1 µM (inactive) with Malme-3M; 18.1 µM (inactive) in the experiment on SR; 21.7 µM (inactive) in the experiment with SN12C; 29 µM (inactive) in the experiment with MDA-MB-231; 30.6 µM in the experiment on HCT-15; 22.3 µM (inactive) in the experiment with CCRF-CEM. For the same compound, the GI50 with K562 was 26.5 µM (inactive).
